According to patent US10702577B2, “Combination therapies using cyclosporine and aromatic cationic peptides” (STEALTH BIOTHERAPEUTICS CORP, priority 2010, dated 2020):
Square brackets hold non-standard residues; d marks the D form. Ends that are not written are not given here. Peptide text beside a SMILES is read from it.

Experiments:
[1] = tested on: mu-opioid receptor; details: result in words; no data shown; cited from earlier work
[2] = tested on: transplanted tissue or organ; cyclosporine nephrotoxicity; experiment: Peptide with cyclosporine in transplant patients: organ health and nephrotoxicity (Example 7); type: in vivo; details: subjects who receive the peptide versus those who do not; predicted
Excerpt: To prevent organ or tissue rejection after transplant, patients often receive a regimen of the immunosuppressive drug cyclosporine. Cyclosporine levels are established and maintained in the subject at levels to effectively suppress the immune system. However, nephrotoxicity is a concern for these subjects, and the level of the drug in the subject's blood is monitored carefully. Cyclosporine doses are adjusted accordingly in order to not only prevent rejection, but also to deter these potentially damaging side effects. Typically, an adult transplant patient receives cyclosporine as follows: IV: 2 to 4 mg/kg/day IV infusion once a day over 4 to 6 hours, or 1 to 2 mg/kg IV infusion twice a day over 4 to 6 hours, or 2 to 4 mg/kg/day as a continuous IV infusion over 24 hours. Capsules: 8 to 12 mg/kg/day orally in 2 divided doses. Solution: 8 to 12 mg/kg orally once a day. […]
A therapeutically effective amount of an aromatic-cationic peptide or pharmaceutically acceptable salt thereof such as acetate or trifluoroacetate salt is administered to subjects prior to, during and/or after transplant as show in Table 13 above. Subjects are monitored for health and function of the transplanted tissue or organ, as well as the incidence and severity of nephrotoxicitity often seen with prolonged cyclosporine administration.

[3] = tested on: several mammalian cell types; details: energy-independent manner; Zhao et al. 2003; cited from earlier work

Compound	mu-opioid receptor agonist activity [1]	further results
F[dR]FK-NH2 [SS-20]	does not have mu-opioid receptor agonist activity	–
Tyr-D-Arg-Phe-Lys-NH2 [SS-01]	has mu-opioid receptor agonist activity	–
Cc1cc(O)cc(C)c1C[C@H](NC(=O)[C@H](N)CCCNC(=N)N)C(=O)N[C@@H](CCCCN)C(=O)N[C@@H](Cc1ccccc1)C(N)=O [PEPTIDE, D-Arg-2′6′-Dmt-Lys-Phe-NH2] (HELM PEPTIDE1{[dR].[Cc1cc(O)cc(C)c1C[C@H](N[*:1])C(=O)[*:2]].K.F.[am]}$$$$V2.0)	–	tolerated cyclosporine dosage [2]: able to maintain a higher and/or more consistent cyclosporine dosage for longer periods of time
2′,6′-Dmt-D-Arg-Phe-Lys-NH2 [SS-02]	–	penetration of the plasma membrane [3]: readily penetrates the plasma membrane
